Test results from ChEMBL document CHEMBL5321238, “Small-molecule theranostics in Alzheimer's disease” (Eur J Med Chem, 2023).

Biological target: Amyloid-beta precursor protein (Homo sapiens) (UniProt P05067)
Test: Binding affinity to amyloid beta (1 to 40 residues) (unknown origin) aggregation assessed as fold increase in fluorescence intensity

Amyloid-beta precursor protein (Homo sapiens), sequence (P05067 whole entry, the tested form may be a part): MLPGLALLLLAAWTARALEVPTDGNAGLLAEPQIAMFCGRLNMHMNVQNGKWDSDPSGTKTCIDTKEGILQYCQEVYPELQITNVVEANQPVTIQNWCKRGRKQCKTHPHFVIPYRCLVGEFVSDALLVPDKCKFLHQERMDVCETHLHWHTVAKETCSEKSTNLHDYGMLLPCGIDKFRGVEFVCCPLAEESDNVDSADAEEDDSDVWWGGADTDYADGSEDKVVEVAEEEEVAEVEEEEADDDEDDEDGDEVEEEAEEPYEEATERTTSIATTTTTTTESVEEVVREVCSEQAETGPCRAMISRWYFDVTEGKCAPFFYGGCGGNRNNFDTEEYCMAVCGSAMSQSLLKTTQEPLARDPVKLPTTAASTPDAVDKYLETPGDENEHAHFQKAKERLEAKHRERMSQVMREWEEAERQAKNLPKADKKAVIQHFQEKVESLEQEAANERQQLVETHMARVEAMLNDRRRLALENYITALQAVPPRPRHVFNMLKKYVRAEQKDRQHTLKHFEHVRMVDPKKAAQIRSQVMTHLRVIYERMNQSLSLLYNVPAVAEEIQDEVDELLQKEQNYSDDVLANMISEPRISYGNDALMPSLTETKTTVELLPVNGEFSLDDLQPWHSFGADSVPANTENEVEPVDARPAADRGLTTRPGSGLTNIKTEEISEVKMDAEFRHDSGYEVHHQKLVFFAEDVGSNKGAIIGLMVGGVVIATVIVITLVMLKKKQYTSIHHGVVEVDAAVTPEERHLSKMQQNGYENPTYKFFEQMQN

fold change (FC): 70
SMILES: CN(C)c1ccc(/C=C/C2=CC(/C=C/c3ccc(N(C)C)cc3)=[O+][B-](F)(F)O2)cc1
